Laboratory results published in ChEMBL document CHEMBL3045862, “PRE-CLINICAL AND CLINICAL PHARMACOKINETICS OF THE DIASTEREOMERS OF ARTEETHER, A POTENT ANTIMALARIAL” (Med Chem Res, 2004).

Legend:
[1] = Mean residence time in Macaca mulatta (Rhesus monkey) at 50 mg/kg, po; assay type: ADME, organism-based; set-up: dose 50 mg/kg, route oral; conditions: in vivo
[2] = AUC (0 to infinity) in Rattus norvegicus Sprague-Dawley (rat) at 30 mg/kg, administered intramuscularly; assay type: ADME, organism-based, Plasma; set-up: time infinity, dose 30 mg/kg, route intramuscular; conditions: Sprague-Dawley, plasma, im
[3] = AUC (0 to infinity) in Homo sapiens (human) at 150 mg; assay type: ADME, organism-based; set-up: dose 150 mg, time infinity; conditions: plasma
[4] = Cmax in Rattus norvegicus Sprague-Dawley (rat) at 30 mg/kg, po; assay type: ADME, organism-based; set-up: dose 30 mg/kg, route oral; conditions: in vivo
[5] = AUC (0 to infinity) in Macaca mulatta (Rhesus monkey) at 7.5 mg/kg, administered intramuscularly; assay type: ADME, organism-based, Plasma; set-up: time infinity, dose 7.5 mg/kg, route intramuscular; conditions: plasma, im
[6] = Clearance in Homo sapiens (human) at 150 mg; assay type: ADME, organism-based; conditions: in vivo
[7] = Clearance in Rattus norvegicus Sprague-Dawley (rat) at 17.5 mg/kg, administered intramuscularly; assay type: ADME, organism-based; set-up: dose 17.5 mg/kg, route intramuscular; conditions: Sprague-Dawley, in vivo, im
[8] = Mean residence time in Rattus norvegicus Sprague-Dawley (rat) at 2 mg/kg, iv; assay type: ADME, organism-based; set-up: dose 2 mg/kg, route intravenous; conditions: in vivo
[9] = Clearance in Rattus norvegicus Sprague-Dawley (rat) at 30 mg/kg, administered intramuscularly; assay type: ADME, organism-based; set-up: dose 30 mg/kg, route intramuscular; conditions: Sprague-Dawley, in vivo, im
Rattus norvegicus [10] = assay: Volume of distribution in Rattus norvegicus Sprague-Dawley (rat) at 9 mg/kg, administered intramuscularly; assay type: ADME, organism-based; set-up: dose 9 mg/kg, route intramuscular; conditions: in vivo, im
[11] = Mean residence time in Rattus norvegicus Sprague-Dawley (rat) at 17.5 mg/kg, administered intramuscularly; assay type: ADME, organism-based; set-up: dose 17.5 mg/kg, route intramuscular; conditions: in vivo, im
[12] = Elimination half life in Rattus norvegicus Sprague-Dawley (rat) at 2 mg/kg, iv; assay type: ADME, organism-based; set-up: dose 2 mg/kg, route intravenous; conditions: in vivo, read-out: beta t1/2 (converted)
[13] = Volume of distribution in Homo sapiens (human) at 150 mg; assay type: ADME, organism-based; conditions: in vivo
Rhesus monkey = assay: Dose normalized AUC in Macaca mulatta (Rhesus monkey) at 7.5 mg/kg, administered intramuscularly; assay type: ADME, organism-based; set-up: dose 7.5 mg/kg, route intramuscular; conditions: in vivo, im
[14] = Mean residence time in Macaca mulatta (Rhesus monkey) at 4 mg/kg, iv; assay type: ADME, organism-based; set-up: dose 4 mg/kg, route intravenous; conditions: in vivo
[15] = Elimination half life in Rattus norvegicus Sprague-Dawley (rat) at 9 mg/kg, po; assay type: ADME, organism-based; set-up: dose 9 mg/kg, route oral; conditions: in vivo, read-out: beta t1/2 (converted)
[16] = Elimination half life in Rattus norvegicus Sprague-Dawley (rat) at 30 mg/kg, administered intramuscularly; assay type: ADME, organism-based; set-up: dose 30 mg/kg, route intramuscular; conditions: in vivo, im, read-out: beta t1/2 (converted)
[17] = Mean residence time in Rattus norvegicus Sprague-Dawley (rat) at 9 mg/kg, administered intramuscularly; assay type: ADME, organism-based; set-up: dose 9 mg/kg, route intramuscular; conditions: in vivo, im
[18] = Cmax in Rattus norvegicus Sprague-Dawley (rat) at 17.5 mg/kg, po; assay type: ADME, organism-based; set-up: dose 17.5 mg/kg, route oral; conditions: in vivo
[19] = Tmax in Rattus norvegicus Sprague-Dawley (rat) at 9 mg/kg, po; assay type: ADME, organism-based; set-up: dose 9 mg/kg, route oral; conditions: in vivo
[20] = Clearance in Rattus norvegicus Sprague-Dawley (rat) at 9 mg/kg, administered intramuscularly; assay type: ADME, organism-based; set-up: dose 9 mg/kg, route intramuscular; conditions: Sprague-Dawley, in vivo, im
[21] = AUC (0 to infinity) in Macaca mulatta (Rhesus monkey) at 50 mg/kg, po; assay type: ADME, organism-based, Plasma; set-up: time infinity, dose 50 mg/kg, route oral; conditions: plasma
Rattus norvegicus [22] = assay: Dose normalized AUC in Rattus norvegicus Sprague-Dawley (rat) at 17.5 mg/kg, po; assay type: ADME, organism-based; set-up: dose 17.5 mg/kg, route oral; conditions: in vivo
Rattus norvegicus [23] = assay: Volume of distribution in Rattus norvegicus Sprague-Dawley (rat) at 30 mg/kg, administered intramuscularly; assay type: ADME, organism-based; set-up: dose 30 mg/kg, route intramuscular; conditions: in vivo, im
[24] = Tmax in Rattus norvegicus Sprague-Dawley (rat) at 9 mg/kg, administered intramuscularly; assay type: ADME, organism-based; set-up: dose 9 mg/kg, route intramuscular; conditions: in vivo, im
[25] = AUC (0 to infinity) in Rattus norvegicus Sprague-Dawley (rat) at 9 mg/kg, po; assay type: ADME, organism-based, Plasma; set-up: time infinity, dose 9 mg/kg, route oral; conditions: Sprague-Dawley, plasma
[26] = Elimination half life in Rattus norvegicus Sprague-Dawley (rat) at 9 mg/kg, administered intramuscularly; assay type: ADME, organism-based; set-up: dose 9 mg/kg, route intramuscular; conditions: in vivo, im, read-out: beta t1/2 (converted)
[27] = Tmax in Homo sapiens (human) at 150 mg; assay type: ADME, organism-based; conditions: in vivo
[28] = Tmax in Rattus norvegicus Sprague-Dawley (rat) at 30 mg/kg, po; assay type: ADME, organism-based; set-up: dose 30 mg/kg, route oral; conditions: in vivo
[29] = Cmax in Rattus norvegicus Sprague-Dawley (rat) at 9 mg/kg, po; assay type: ADME, organism-based; set-up: dose 9 mg/kg, route oral; conditions: in vivo
[30] = Mean residence time in Rattus norvegicus Sprague-Dawley (rat) at 30 mg/kg, administered intramuscularly; assay type: ADME, organism-based; set-up: dose 30 mg/kg, route intramuscular; conditions: in vivo, im
Rattus norvegicus [31] = assay: Dose normalized AUC in Rattus norvegicus Sprague-Dawley (rat) at 2 mg/kg, iv; assay type: ADME, organism-based; set-up: dose 2 mg/kg, route intravenous; conditions: in vivo
Rattus norvegicus [32] = assay: Volume of distribution in Rattus norvegicus Sprague-Dawley (rat) at 30 mg/kg, po; assay type: ADME, organism-based; set-up: dose 30 mg/kg, route oral; conditions: in vivo
[33] = Tmax in Rattus norvegicus Sprague-Dawley (rat) at 30 mg/kg, administered intramuscularly; assay type: ADME, organism-based; set-up: dose 30 mg/kg, route intramuscular; conditions: in vivo, im
[34] = Elimination half life in Rattus norvegicus Sprague-Dawley (rat) at 17.5 mg/kg, administered intramuscularly; assay type: ADME, organism-based; set-up: dose 17.5 mg/kg, route intramuscular; conditions: in vivo, im, read-out: beta t1/2 (converted)
Rattus norvegicus [35] = assay: Volume of distribution in Rattus norvegicus Sprague-Dawley (rat) at 17.5 mg/kg, po; assay type: ADME, organism-based; set-up: dose 17.5 mg/kg, route oral; conditions: in vivo
[36] = Elimination half life in Homo sapiens (human) at 150 mg; assay type: ADME, organism-based; conditions: in vivo, read-out: beta t1/2 (converted)
Homo sapiens = organism: Homo sapiens; assay: Dose normalized AUC in Homo sapiens (human) at 150 mg; assay type: ADME, organism-based; conditions: in vivo
Rattus norvegicus [37] = assay: Dose normalized AUC in Rattus norvegicus Sprague-Dawley (rat) at 17.5 mg/kg, administered intramuscularly; assay type: ADME, organism-based; set-up: dose 17.5 mg/kg, route intramuscular; conditions: in vivo, im
Rattus norvegicus [38] = assay: Volume of distribution in Rattus norvegicus Sprague-Dawley (rat) at 9 mg/kg, po; assay type: ADME, organism-based; set-up: dose 9 mg/kg, route oral; conditions: in vivo
[39] = AUC (0 to infinity) in Macaca mulatta (Rhesus monkey) at 4 mg/kg, iv; assay type: ADME, organism-based, Plasma; set-up: time infinity, dose 4 mg/kg, route intravenous; conditions: plasma

## CCO[C@H]1O[C@@H]2O[C@@]3(C)CC[C@H]4[C@H](C)CC[C@@H]([C@H]1C)[C@@]24OO3 [ARTEMOTIL]
[1]
  MRT: 5.8 h
[2]
  AUC(0-inf): 407 ng·h/mL
[3]
  AUC(0-inf): 2330 ng·h/mL
[4]
  Cmax: 8.1 ng/mL
[5]
  AUC(0-inf): 746 ng·h/mL
[6]
  clearance: 13.3 mL/min/kg
[7]
  CL/F: 83.3 mL/min/kg
[8]
  MRT: 0.9 h
[9]
  CL/F: 762 mL/min/kg
Rattus norvegicus [10]
  Vd: 213.2 L/kg
[11]
  MRT: 33.2 h
[12]
  half-life: 0.85 h
[13]
  Vd: 36.2 L/kg
Rhesus monkey
  AUC/dose: 142.2 ng·h/mL
[14]
  MRT: 2.8 h
[15]
  half-life: 4.2 h
[16]
  half-life: 25.2 h
[17]
  MRT: 40.8 h
[18]
  Cmax: 8.1 ng/mL
[19]
  Tmax: 5 min
[20]
  CL/F: 86.7 mL/min/kg
[21]
  AUC(0-inf): 8.5 ng·h/mL
Rattus norvegicus [22]
  AUC/dose: 2.8 ng·h/mL
Rattus norvegicus [23]
  Vd: 1660.6 L/kg
[24]
  Tmax: 0.333 h
[25]
  AUC(0-inf): 46.8 ng·h/mL
[26]
  half-life: 28.5 h
[27]
  Tmax: 6.9 min
[28]
  Tmax: 5 min
[29]
  Cmax: 10.3 ng/mL
[30]
  MRT: 44.2 h
Rattus norvegicus [31]
  AUC/dose: 132 ng·h/mL
Rattus norvegicus [32]
  Vd: 3024.2 L/kg
[33]
  Tmax: 0.167 h
[34]
  half-life: 27.5 h
Rattus norvegicus [35]
  Vd: 1965.9 L/kg
[36]
  half-life: 30.2 h
Homo sapiens
  AUC/dose: 1315.7 ng·h/mL
Rattus norvegicus [37]
  AUC/dose: 197.1 ng·h/mL
Rattus norvegicus [38]
  Vd: 770.8 L/kg
[39]
  AUC(0-inf): 1220 ng·h/mL
